PMC3029496 (Biochemistry, 2010)

Biological target: PncA H57D mutant (Mycobacterium tuberculosis, UniProt I6XD65, H57D)
Type: biochemical

NC(=O)c1cnccn1 [pyrazinamide]
decrease in Km, H57D mutant versus wild type: 20 fold
decrease in kcat (catalytic turnover), H57D mutant versus wild type: 38 fold
kcat: 0.10 ± 0.01 s⁻¹
